Test results taken from US20040132819A1, “Appetite control method” (priority 2002, published 2004).
Read-outs that look alike come from different tables or passages of the source.

Assays:
[1] = Deaths during artificial rearing; format: in vivo, Sprague-Dawley rat; conditions: combined rearings; vs 10 rats without DHA, p=0.054
Excerpt: Male rat pups were removed from dams on postnatal day 6 and artificially reared on rat milk formulas to day 18. This procedure has been described in detail in the literature by Sonnenberg et al, 1982; Smart et al, 1983 and 1984; and Auestad et al, 1989. Similar procedures have been also been described by Ward et al, 1998, and Wainwright et al, 1999. On postnatal day 6, rat pups were randomly assigned to one of the four experimental rat milk formula groups (Table 3.2). The rat pups were lightly anesthetized, fitted with an intragastric cannula, and placed individually in pint-sized plastic containers free floating in a waterbath maintained at 36±2° C. The cannulae for individual rat pups were each connected to syringes filled with one of the four experimental rat milk formulas using polyethylene tubing. The rat pups were fed by intermittent, intragastric infusion, from day 6 to day 18. The formula was delivered to the rat pups for 20 or 30 min each hour, depending on the age of the rat, using a programmable pump housed in a bench-top refrigerator. The pump settings were modified daily to deliver specific quantities of rat milk formula to the rat pups to support normal growth.
Two groups of rats were artificially reared one in February 2002 and one in April 2002. The plan was to cannulate a total of 64 rats, thirty-two per rearing and 8 rats per experimental formula group. […]

[2] = Postprandial leptin and circulating insulin levels; format: in vivo, Sprague-Dawley rat
Procedure: The rat pups were sacrificed by decapitation on day 20 after the food intake phase and final body weights were taken. The brain was removed, weighed, and quickly frozen (within 5 minutes) in liquid nitrogen. Brain tissue was stored in a −70° C. freezer. Blood was collected from the neck stump, mixed with heparin, placed on ice, and centrifuged to ensure adequate phase separation to prepare plasma. Plasma was stored at −70° C.
Postprandial leptin levels in the rats fed the ARA-containing formulas during the formula feeding phase were about 20-30% lower than for rats fed the formulas without ARA. Postprandial leptin levels in the rats fed the DHA-containing formulas were about 5-15% higher than for rats fed the formulas without DHA. No differences in circulating insulin levels were found among the groups.

[3] = test system: hypothalamic 20:4n-6 NAE and 20:4n-6 MAG; conditions: 125 or 250 μg intravenously, within 30 minutes, normal Sprague-Dawley rats; cited from earlier work
[4] = pre-satiated rats, subcutaneous, all doses; cited from earlier work
[5] = test system: diet-restricted BALB/c mice; conditions: cited from earlier work
[6] = test system: rat brain phospholipid membrane; test: Fatty acid levels in rat brain phospholipid membrane; format: in vivo, Sprague-Dawley rat; conditions: ANOVA main effect
Procedure: (§1) Total lipid was extracted from rat brains using the Folch extraction method, typical for lipid extraction (Folch et al, 1957). The total lipid extract from each rat brain was separated into neutral lipid and phospholipid fractions using a silica cartridge. The neutral lipid fraction was further separated into MAG and NAE fractions using High Performance Liquid Chromatography (HPLC). Fatty acid composition of the MAG, NAE, and phospholipid fractions was determined using Gas-Liquid Chromatography (GLC) after derivatizing to the corresponding fatty acid methyl esters. The fatty acid composition results correspond to total fatty acids in the membrane phospholipids in brain, and the MAG and NAE fatty acid results represent the concentration of these fatty acyl derivatives in rat brains.
(§2) Rat brain samples, stored frozen at −70° C., were separated into the two hemispheres; one half was used for determination of fatty acids in phospholipid, MAG, and NAE fractions and the other half was refrozen at −70° C. The half brain for analysis was transferred to a 50-mL glass centrifuge tube. Eight mL of methanol was added and the sample homogenized using a Polytron Dispersing and Mixing System (Kinematica, Switzerland) until well blended. The homogenizer probe was rinsed with 2 mL methanol added directly into the centrifuge tube. Twenty mL of chloroform was then added to the sample and mixed vigorously by shaking. The sample was left undisturbed at room temperature for at least 1 hour. Known amounts of internal standards, 9.91 μg of monoheptadecanoin and 3.32 μg of docosatrienoyl ethanolamine, were added. Six mL of 0.9% saline was then added and the sample mixed vigorously by shaking. The sample was then centrifuged for 7 minutes at 2000 rpm at 15° C. until the organic and aqueous layers were well separated using a Beckman Allegra™ 6R Centrifuge; Fullerton, Calif.). The chloroform (bottom) layer was aspirated into a clean 30-mL test tube. The sample was then evaporated to dryness under N2 and was either stored at −20° C. or reconstituted in 500 μL of chloroform. […]

[7] = test system: rat brain N-acylethanolamines; test: N-acylethanolamine (NAE) levels in rat brain; format: in vivo, Sprague-Dawley rat
Procedure: as §1, §2

brain NAEs and MAGs = conditions: piglets fed 0.2% AA (percent total fatty acids); cited from earlier work
[8] = test system: rat brain monoacylglycerols; test: Monoacylglycerol (MAG) levels in rat brain; format: in vivo, Sprague-Dawley rat; conditions: ANOVA main effect
Procedure: as §1
Rat brain samples, stored frozen at −70° C., were separated into the two hemispheres; one half was used for determination of fatty acids in phospholipid, MAG, and NAE fractions and the other half was refrozen at −70° C. The half brain for analysis was transferred to a 50-mL glass centrifuge tube. Eight mL of methanol was added and the sample homogenized using a Polytron Dispersing and Mixing System (Kinematica, Switzerland) until well blended. The homogenizer probe was rinsed with 2 mL methanol added directly into the centrifuge tube. […]

CC/C=C\C/C=C\C/C=C\C/C=C\C/C=C\C/C=C\CCC(=O)O [DHA, docosahexaenoic acid]
rats that died when DHA was in the formula [1]: 3 rats
postprandial leptin levels higher than in rats fed formulas without DHA ([2]; DHA-containing formulas): 5-15%

leptin: peptide hormone secreted from adipose cells
decrease of hypothalamic levels of 20:4n-6 NAE and 20:4n-6 MAG vs untreated controls [3]: 40-50%

CCCCC/C=C\C/C=C\C/C=C\C/C=C\CCCC(=O)NCCO [20:4n-6 NAE, 5,8,11,14-eicosatetraenamide, (N-2-hydroxyethyl)-(all-Z)]
effect on eating [4]: induced significant overeating
food consumption vs control group ([5]; 0.001 mg/kg intraperitoneally, 40% calorie restriction): consumed significantly more food
food consumption vs control group ([5]; 0.7 or 4 mg/kg intraperitoneally): did not show any significant change

CCCCC/C=C\C/C=C\C/C=C\C/C=C\CCCC(=O)O [AA, arachidonic acid]
main effect on AA and C22:4n-6 levels in brain phospholipids [6]: increasing
main effect on brain phospholipid DHA [6]: decreasing
main effect on linoleic acid (C18:2n-6) and C20:3n-6 levels in brain phospholipids [6]: decreasing
main effect on 20:4n-6 NAE in brain ([7]; ANOVA main effect): increasing
main effect on total n-6 NAE in brain ([7]; ANOVA main effect): increasing
increase in 20:4n-6 NAE in brain ([7]; rats fed formulas with AA, p=0.008): 40%
20:4n-6 NAE increase in brain (brain NAEs and MAGs): 4 fold
main effects on n-6 or n-3 MAG in brain [8]: no significant main effects
postprandial leptin levels lower than in rats fed formulas without ARA ([2]; ARA-containing formulas during formula feeding phase): 20-30%
